Tests used:
A. fumigatus [1] = assay: time kill assay; format: cell-based, Aspergillus fumigatus; details: 50 μg/mL; exposure for 24 hours; FIG. 1
Description: FIG. 1 is a graph showing time-kill curves of A. fumigatus following exposure to ST-AgNPs and amphotericin B for 24 hours (values are expressed as means±SD)
(§1) Several preliminary in vitro experiments were performed to confirm the potent antifungal potential of the green biosynthesized silver nanoparticles (ST-AgNPs) against A. fumigatus. […] Additionally, the inhibitory effect of the antifungals AMB and ST-AgNPs was also examined using light microscopy (FIGS. 2A-2C).

A. fumigatus [2] = assay: light microscopy of mycelial growth / germination; format: cell-based, Aspergillus fumigatus; details: FIG. 2C
Description: FIGS. 2A-2C show differences in the mycelial growth of A. fumigatus in 2A) control 2B) following exposure to ST-AgNPs and 2C) following exposure to amphotericin B. (conventional antifungal agent).
as §1

Compound: C[C@@H]1[C@H](O)[C@@H](C)/C=C/C=C/C=C/C=C/C=C/C=C/C=C/[C@H](O[C@@H]2O[C@H](C)[C@@H](O)[C@H](N)[C@@H]2O)C[C@@H]2O[C@](O)(C[C@@H](O)C[C@@H](O)[C@H](O)CC[C@@H](O)C[C@@H](O)CC(=O)O[C@H]1C)C[C@H](O)[C@H]2C(=O)O [amphotericin B]
- action on the growth of Aspergillus cells (time kill assay) (A. fumigatus [1]): fungistatic action
- mycelial growth (A. fumigatus [2]): substantially reduced

From patent US11998566B1, “Method of synthesizing a silver nanoparticle composition using an extract of Salsola tetrandra” (KING FAISAL UNIVERSITY, priority 2023, dated 2024)
